# Laboratory results as given in patent US20140140988A1, “COMBINATION THERAPY OF AN AFUCOSYLATED CD20 ANTIBODY WITH A MDM2 INHIBITOR” (Roche Glycart AG, priority 2010, published 2014).
# Tested on: human Z138 mantle cell lymphoma cell line
# Experiment: Tumor growth inhibition study in vivo, Z138 mantle cell lymphoma xenograft
# Set-up: species or system SCID beige mice
# Procedure: Cells were co-injected with Matrigel.
# Experimental study protocol was reviewed and approved by local government. […] Continuous health monitoring was carried out on regular basis. Diet food (Provimi Kliba 3337) and water (acidified pH 2.5-3) were provided ad libitum.
# Animals were controlled daily for clinical symptoms and detection of adverse effects.
# The corresponding vehicle was administered on the same days.
Compound,"tumor growth inhibition (day 35 after tumor cell inoculation, single agent 0.5 mg/kg i.p. q7d once weekly for 3 weeks, compared to the control group)","tumor growth inhibition (day 35, single agent 75 mg/kg p.o. once daily, three times weekly over 18 days (FIG. 2))","tumor growth inhibition (day 35, single agent 150 mg/kg p.o. once daily, three times weekly over 18 days (FIG. 3))"
"B-HH6-B-KV1 GE: afucosylated type II anti-CD20 antibody, humanized B-Ly1, glycoengineered; VH SEQ ID No.7, VL SEQ ID No. 20",59%,,
CCOc1cc(C(C)(C)C)ccc1C1=N[C@@](C)(c2ccc(Cl)cc2)[C@@](C)(c2ccc(Cl)cc2)N1C(=O)N1CCN(CCCS(C)(=O)=O)CC1 [MDM2 inhibitor],,35%,78%
